Source: patent publication US20050014765A1, “Aryl-heteroaromatic products, compositions comprising them and use” (Aventis Pharma S.A., priority 2003, published 2005)
Counter-ions that a name gives are not always drawn.

Tests used:
[1] = target: T1, Tubulin purified from pig brains (Sus scrofa, UniProt P02550+P02554); assay: Assessment of the inhibition of tubulin polymerization (turbidimetry at 350 nm); type: biochemical; details: concentration which inhibits the rate of polymerization by 50%; tubulin 1 mg/ml, 37° C.; read-out: Inhibition of tubulin polymerization IC 50
T1 construct: Tubulin is purified from pig brains according to published methods; from tissue; host or cells: pig brain
T1 sequence (P02550 whole entry): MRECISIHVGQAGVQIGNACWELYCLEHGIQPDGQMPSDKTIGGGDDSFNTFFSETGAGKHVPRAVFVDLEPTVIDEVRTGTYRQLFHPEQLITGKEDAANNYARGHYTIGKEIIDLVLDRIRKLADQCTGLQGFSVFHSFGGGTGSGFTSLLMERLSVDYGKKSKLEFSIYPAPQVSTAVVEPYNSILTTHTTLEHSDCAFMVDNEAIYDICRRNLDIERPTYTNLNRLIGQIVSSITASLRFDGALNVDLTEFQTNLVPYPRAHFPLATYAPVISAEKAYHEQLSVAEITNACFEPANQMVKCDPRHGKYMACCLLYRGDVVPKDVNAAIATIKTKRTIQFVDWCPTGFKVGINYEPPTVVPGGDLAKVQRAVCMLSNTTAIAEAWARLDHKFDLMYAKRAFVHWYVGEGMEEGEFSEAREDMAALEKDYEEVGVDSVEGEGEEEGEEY
T1 sequence (P02554 whole entry): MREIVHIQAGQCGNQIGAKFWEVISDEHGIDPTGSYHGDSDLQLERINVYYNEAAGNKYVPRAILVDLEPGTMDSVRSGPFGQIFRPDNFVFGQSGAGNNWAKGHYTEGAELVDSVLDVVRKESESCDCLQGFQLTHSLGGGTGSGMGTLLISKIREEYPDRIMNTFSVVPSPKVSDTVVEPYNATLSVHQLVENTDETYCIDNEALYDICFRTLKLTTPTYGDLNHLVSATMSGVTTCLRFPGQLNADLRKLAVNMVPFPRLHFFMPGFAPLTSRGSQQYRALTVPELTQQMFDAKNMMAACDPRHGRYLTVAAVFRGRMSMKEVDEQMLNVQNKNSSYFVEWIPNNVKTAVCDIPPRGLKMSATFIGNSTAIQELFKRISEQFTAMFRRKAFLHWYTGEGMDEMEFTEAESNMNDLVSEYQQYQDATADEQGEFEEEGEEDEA
Experimental: Assessment of the Inhibition of Tubulin Polymerization
Tubulin is purified from pig brains according to published methods (Shelanski et al., 1973, Proc. Natl. Acad. Sci. USA, 70, 765-768. Weingarten et al., 1975, Proc. Natl. Acad. Sci. USA, 72, 1858-1862). Briefly, the brains are ground and centrifuged in an extraction buffer. The tubulin, present in the extract supernatant is subjected to two successive cycles of polymerization at 37° C. and depolymerization at 4° C., before being separated from the MAPs (Microtubule Associated Proteins) by chromatography on a phosphocellulose P11 column (Whatman). The tubulin thus isolated is more than 95% pure. It is stored in a buffer known as RB/2 30% glycerol, the composition of which is 50 mM MES-NaOH [2-(N-morpholino)ethanesulfonic acid], pH 6.8; 0.25 mM MgCl2; 0.5 mM EGTA; 30% (v/v) glycerol, 0.2 mM GTP (guanosine 5′-triphosphate).
The polymerization of the tubulin into microtubules is monitored by turbidimetry as follows: the tubulin is adjusted to a concentration of 10 μm (1 mg/ml) in the RB/2 30% glycerol buffer, to which are added 1 mM GTP and 6 mM MgCl2. The polymerization is initiated by increasing the temperature from 6° C. to 37° C. in a cuvette with a 1 cm optical pathlength, placed in a UVIKON 931 spectrophotometer (Kontron) equipped with a thermostatically-regulated cuvette holder. The increase in turbidity of the solution is monitored at 350 nm.
The products are dissolved at 10 mM in DMSO and added at variable concentrations (0.5 to 10 μm) to the tubulin solution before polymerization. The IC50 is defined as the concentration of the product which inhibits the rate of polymerization by 50%.

HCT116 cells = assay: Inhibition of proliferation of the HCT116 human colon tumor line ([14C]-thymidine incorporation); type: cell-based; details: HCT-116, 48 hours incubation at 37° C., read-out: Inhibition of HCT116 proliferation IC 50
Experimental: Test for Determining the Inhibition of Proliferation of the HCT116 Human Colon Tumor Line
The proliferation of HCT116 cells is evaluated by mesuring the incorporation of [^14C]-thymidine in the following way. The HCT166 cells (from the ATCC) are cultured in a DMEM medium (Gibco) which contains 10% of fetal calf serum and antibiotics (1% penicillin, 1% streptomycin). To perform the proliferation test, the cells are seeded into 96-well cytostar microplates (Amersham) at the rate of 5000 cells per well. The [^14C]-thymidine (0.1 μCi/well) and the products to be evaluated are subsequently added. Variable concentrations of products up to 10 μM are used; the DMSO (solvent used to dissolve the products) should not exceed 0.5% in the medium. 48 hours after incubation at 37° C., the radioactivity incorporated into the cells is measured by counting the plate in a Tri-Lux counter (Wallac). The IC50 is defined as the concentration of product which reduces the radioactivity by 50% compared with an untreated control. A product with an IC50 of less than 10 μm is regarded as cytotoxic.

IC50 [1] [nM]	IC50 (HCT116 cells) [nM]	SMILES
2900	731	O=C(c1c[nH]cc1-c1ccccc1)N1CCN(c2cccc(Cl)c2)CC1 [Example 15, [4-(3-Chlorophenyl)piperazin-1-yl](4-phenyl-1H-pyrrol-3-yl)methanone]
970	3.8	COc1cc(OC)cc(N2CCN(C(=O)c3cn(C)cc3-c3ccccc3)CC2)c1 [Example 18, [4-(3,5-Dimethoxyphenyl)piperazin-1-yl](1-methyl-4-phenyl-1H-pyrrol-3-yl)methanone hydrochloride]
700	11.7	COc1cc(OC)cc(N2CCN(C(=O)c3nc(S)[nH]c3-c3ccccc3)CC2)c1 [Example 20, [4-(3,5-Dimethoxyphenyl)piperazin-1-yl](2-mercapto-5-phenyl-1H-imidazol-4-yl)methanone]
1100	193	NC(=O)c1cccc(N2CCN(C(=O)c3[nH]cnc3-c3ccccc3)CC2)c1 [Example 22, [4-(3-Carboxamidophenyl)piperazin-1-yl](4-phenyl-1H-imidazol-5-yl)-methanone]
9500	114	COc1cc(OC)cc(N2CCN(C(=O)c3nc(SC)n(C)c3-c3ccccc3)CC2)c1 [Example 24, [4-(3,5-Dimethoxyphenyl)piperazin-1-yl](N-methyl-2-methylsulfanyl-5-phenyl-1H-imidazol-4-yl)methanone]
9600	297	NC(=O)c1cccc(N2CCN(C(=O)c3cc[nH]c3-c3ccccc3)CC2)c1 [Example 25, [4-(3-Carboxamidophenyl)piperazin-1-yl](2-phenyl-1-H-pyrrol-3-yl)methanone]
3200	75.2	O=C(c1cc[nH]c1-c1ccccc1)N1CCN(c2cccc(Cl)c2)CC1 [Example 26, [4-(3-Chlorophenyl)piperazin-1-yl](2-phenyl-1H-pyrrol-3-yl)methanone]
400	3	COc1cccc(N2CCN(C(=O)c3[nH]cnc3-c3ccccc3)CC2)c1 [Example 29, [4-(3-Methoxyphenyl)piperazin-1-yl](4-phenyl-1H-imidazol-5-yl)methanone]
800	6.4	O=C(c1[nH]cnc1-c1ccccc1)N1CCN(c2cccc(OC(F)F)c2)CC1 [Example 30, [4-(3-Difluoromethoxyphenyl)piperazin-1-yl](5-phenyl-1H-imidazol-4-yl)methanone]
2160	749	COC(=O)CCn1cc(C(=O)N2CCN(c3cccc(Cl)c3)CC2)c(-c2ccccc2)c1 [Example 34, Methyl 3-{3-[4-(3-chlorophenyl)piperazin-1-ylcarbonyl]-4-phenylpyrrol-1-yl}-propionate]
11200	275	COc1cc(OC)cc(N2CCN(C(=O)c3c(-c4ccccc4)ccn3C)CC2)c1 [Example 40, [4-(3,5-Dimethoxyphenyl)piperazin-1-yl](1-methyl-3-phenyl-1H-pyrrol-2-yl)-methanone hydrochloride]
1290	1.6	COc1cc(OC)cc(N2CCN(C(=O)c3sc(N)nc3-c3ccccc3)CC2)c1 [Example 42, (2-Amino-4-phenylthiazol-5-yl)[4-(3,5-dimethoxyphenyl)piperazin-1-yl]-methanone]
600	7.1	COc1cc(OC)cc(N2CCN(C(=O)c3[nH]c(C)nc3-c3ccccc3)CC2)c1 [Example 43, [4-(3,5-Dimethoxyphenyl)piperazin-1-yl](2-methyl-5-phenyl-3H-imidazol-4-yl)methanone]
3410	536	Cn1ccc(C(=O)N2CCN(c3cccc(C(N)=O)c3)CC2)c1-c1ccccc1 [Example 50, 3-[4-(1-Methyl-2-phenyl-1H-pyrrol-3-ylcarbonyl)piperazin-1-yl]benzamide]
1080	1890	NC(=O)c1cccc(N2CCN(C(=O)c3[nH]c(C(F)(F)F)nc3-c3ccccc3)CC2)c1 [Example 54, 3-[4-(2-Trifluoromethyl-4-phenyl-1H-imidazol-5-ylcarbonyl)piperazin-1-yl]-benzamide]
4660	364	Cc1nc(-c2ccccc2)c(C(=O)N2CCN(c3cccc(C(N)=O)c3)CC2)[nH]1 [Example 59, 3-[4-(2-Methyl-5-phenyl-1H-imidazol-4-ylcarbonyl)piperazin-1-yl]benzamide]

Continued, molecule first:

SMILES	IC50 [1] [nM]	IC50 (HCT116 cells) [nM]
COc1cc(OC)cc(N2CCN(C(=O)c3c[nH]cc3-c3ccccc3)CC2)c1 [Example 16, [4-(3,5-Dimethoxyphenyl)piperazin-1-yl](4-phenyl-1H-pyrrol-3-yl)methanone]	2400	8.5
NC(=O)c1cccc(N2CCN(C(=O)c3cncn3-c3ccccc3)CC2)c1 [Example 17, [4-(3-Carboxamidophenyl)piperazin-1-yl](1-phenyl-1H-imidazol-5-yl)methanone]	5500	536
COc1cc(OC)cc(N2CCN(C(=O)c3nc(SC)[nH]c3-c3ccccc3)CC2)c1 [Example 23, [4-(3,5-Dimethoxyphenyl)piperazin-1-yl](2-methylsulfanyl-5-phenyl-1H-imidazol-4-yl)methanone]	600	1.7
COc1cc(OC)cc(N2CCN(C(=O)c3[nH]c([S+](C)[O-])nc3-c3ccccc3)CC2)c1 (stereo not shown) [Example 33, [4-(3,5-Dimethoxyphenyl)piperazin-1-yl](2-methanesulfinyl-5-phenyl-1H-imidazol-4-yl)methanone]	1950	180
Cn1cc(C(=O)N2CCN(c3cccc(C(N)=O)c3)CC2)c(-c2ccccc2)c1 [Example 37, 3-[4-(1-Methyl-4-phenyl-1H-pyrrol-3-yl-carbonyl)piperazin-1-yl]benzamide]	720	14.9
COc1cc(OC)c(O)c(N2CCN(C(=O)c3[nH]c([S+](C)[O-])nc3-c3ccccc3)CC2)c1 (stereo not shown) [Example 38, [4-(2-Hydroxy-3,5-dimethoxyphenyl)piperazin-1-yl](2-methanesulfinyl-5-phenyl-1H-imidazol-4-yl)methanone]	19900	2310
NC(=O)c1cccc(N2CCN(C(=O)c3[nH]ccc3-c3ccccc3)CC2)c1 [Example 39, 3-[4-(3-Phenyl-1H-pyrrol-2-ylcarbonyl)piperazin-1-yl]benzamide]	12400	200
COc1cc(OC)cc(N2CCN(C(=O)c3cn(C(C)=O)cc3-c3ccccc3)CC2)c1 [Example 41, 1-{3-[4-(3,5-Dimethoxyphenyl)piperazin-1-yl-carbonyl]-4-phenylpyrrol-1-yl}-ethanone]	1330	123
COc1cc(OC)cc(N2CCN(C(=O)c3cn(CCCC(=O)O)cc3-c3ccccc3)CC2)c1 [Example 46, 4-{3-[4-(3,5-Dimethoxyphenyl)piperazin-1-yl]carbonyl-4-phenyl-1H-pyrrol-1-yl}-butanoic acid]	4350	6380
COc1cc(OC)cc(N2CCN(C(=O)c3cn(Cc4cccnc4)cc3-c3ccccc3)CC2)c1 [Example 48, [4-(3,5-Dimethoxyphenyl)piperazin-1-yl][1-(pyridin-3-yl)methyl-4-phenyl-1H-pyrrol-3-yl]methanone]	750	51.1
CSc1nc(-c2ccccc2)c(C(=O)N2CCN(c3cccc(C(N)=O)c3)CC2)[nH]1 [Example 55, 3-[4-(2-Methylsulfanyl-4-phenyl-1H-imidazol-5-ylcarbonyl)piperazin-1-yl]-benzamide]	1380	64
CSc1nc(-c2ccccc2)c(C(=O)N2CCN(c3cccc(C#N)c3)CC2)[nH]1 [Example 56, 3-[4-(2-Methylsulfanyl-4-phenyl-1H-imidazol-5-ylcarbonyl)piperazin-1-yl]-benzonitrile]	415	1.7
NC(=O)c1cccc(N2CCN(C(=O)c3c[nH]cc3-c3ccccc3)CC2)c1 [Example 58, 3-[4-(4-Phenyl-1H-pyrrol-3-ylcarbonyl)piperazin-1-yl]benzamide]	4450	334
